Data on 2 compounds can be found in ChEMBL document CHEMBL1833922, “A compound isolated from Schisandra chinensis induces apoptosis” (2011).

For assay [1], the system named is HCT-116. Briefly: Induction of apoptosis in human HCT116 cells assessed as accumulation of cleaved caspase-7 at 10 uM after 48 hrs by Western blot analysis. The assay is classed as functional, cell-based. In general terms: In western blotting, separated proteins are transferred to a membrane and probed.
Assay [2] deals with HCT-116. The assay is described as follows: Induction of apoptosis in human HCT116 cells assessed as increase in cleaved PARP level at 10 uM by Western blot analysis. In kind it is functional, cell-based. Particulars: TDE = time-dependent effect.
The subject of assay [3] is HCT-116. Briefly: Anticlonogenic activity against human HCT116 cells at 2 uM after 7 days using crystal violet staining. In kind it is functional.
Assay [4] has as its system HCT-116. Briefly: Antiproliferative activity against human HCT116 cells assessed as cell growth inhibition at 10 to 40 uM by WST-8 assay. In kind it is functional, cell-based. The conditions noted are these: TDE = time-dependent effect. Background: Formazan colour is commonly taken as a measure of viable cells.
For assay [5], the system named is HCT-116. Briefly: Antiproliferative activity against human HCT116 cells assessed as cell growth inhibition after 12 to 48 hrs by WST-8 assay. The assay is classed as functional, cell-based.
For assay [6], the system named is HCT-116. Briefly: Induction of apoptosis in human HCT116 cells assessed as shrunken nuclei at 10 uM after 48 hrs by fluorescence microscopy method. The assay is classed as functional, cell-based.
For assay [7], the system named is HCT-116. The assay is described as follows: Induction of apoptosis in human HCT116 cells assessed as fragmented nuclei at 10 uM after 48 hrs by fluorescence microscopy method. In kind it is functional, cell-based.
The subject of assay [8] is HCT-116. Briefly: Induction of apoptosis in human HCT116 cells assessed as condensed chromatin at 10 uM after 48 hrs by fluorescence microscopy method. In kind it is functional, cell-based.

The source made the active and inactive calls. The calls are words filed in the database; no cut-off is given here.

As to `COc1cc2c(c(OC)c1OC)-c1c(cc3c(c1OC)OCO3)C[C@H](C)[C@](C)(O)C2`, in the assay with HCT-116 [1], the result was Active.

Regarding `COc1cc2c(c(OC)c1OC)-c1c(cc3c(c1OC)OCO3)C[C@@H](C)[C@](C)(O)C2`, the Activity entry with HCT-116 [2] was “tde”; in the assay with HCT-116 [3], 50%. The outcome in the assay on HCT-116 [1], in the assay with HCT-116 [6], with HCT-116 [7] and in the assay with HCT-116 [8] was Active. The “growth inhibition (GI)” value is “tde” in the assay with HCT-116 [4] and “Dose-dependent effect” with HCT-116 [5].
